Test results from patent US20050137209A1, “Treatment of neurologic disorders with inhibitors of 11beta-HSD1” (AGY Therapeutics, Inc., priority 2003, published 2005).
pIC50: −log10 of the molar value.

Columns and labels:
[1] = target: T1, human 11βHSD2 (Homo sapiens, UniProt P80365); conditions: cited from earlier work
T1 sequence (P80365 1-405): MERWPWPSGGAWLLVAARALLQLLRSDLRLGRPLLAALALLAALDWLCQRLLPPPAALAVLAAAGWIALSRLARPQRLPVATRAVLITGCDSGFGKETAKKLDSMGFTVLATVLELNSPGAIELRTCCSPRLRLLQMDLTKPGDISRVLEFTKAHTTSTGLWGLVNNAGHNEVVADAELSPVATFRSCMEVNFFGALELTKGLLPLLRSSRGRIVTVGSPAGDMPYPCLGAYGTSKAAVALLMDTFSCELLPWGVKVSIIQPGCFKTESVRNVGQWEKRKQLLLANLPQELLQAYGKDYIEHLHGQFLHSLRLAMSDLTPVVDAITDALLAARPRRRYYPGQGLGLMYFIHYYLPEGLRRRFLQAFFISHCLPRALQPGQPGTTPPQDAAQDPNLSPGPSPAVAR

[2] = system: middle cerebral artery occlusion (MCAO) brain infarction; experiment: MCAO transient focal ischemia, BVT 2733 (Example 1); type: in vivo; conditions: rat, 90 min MCAO, bolus 90 mg/kg at 4.5 h and 8.5 h post-occlusion, 24 h reperfusion
Procedure: BVT 2733 was tested in the following MCAO protocol. A middle cerebral artery (MCA) occlusion was used to induce temporary cerebral ischemia. It involves anesthetizing the rat, making an incision in the ventral neck region to isolate the common carotid artery and the internal and external carotid arteries. […] A silicone-coated mono filament is then inserted into the external carotid artery and woven through the artery into the internal carotid until it can occlude blood flow to the middle cerebral artery (MCA). The filament is removed after 90 min. After removal of the filament, the external carotid stump is tied shut and the clamps removed to allow the return of blood flow to the brain. The incision will be closed with wound clips. Post surgery, animals are observed until recovery from anesthesia.
During the surgery, animals are kept on a thermostat-regulated heating pad to maintain the body and head temperatures at 37° C. […]
The body core temperature of the animal is measured regularly, up to 1 day of recovery in some animals. […] Temperatures are measured manually using a rectal probe. […]
After 24 hours of reperfusion, the animals are sacrificed. […] Infarction volume was measured by digital imaging and image analysis software. Infarction volumes are determined in cortex and striatum and expressed as a percentage of the total brain volume. […]

[3] = system: middle cerebral artery occlusion (MCAO) brain infarction; experiment: MCAO transient focal ischemia, carbenoxolone (Example 2); type: in vivo, rat
Excerpt: The method used is a middle cerebral artery (MCA) occlusion to induce temporary cerebral ischemia. It involves anesthetizing the rat, making an incision in the ventral neck region to isolate the common carotid artery and the internal and external carotid arteries. […] A silicone-coated mono filament is then inserted into the external carotid artery and woven through the artery into the internal carotid until it can occlude blood flow to the middle cerebral artery (MCA). The filament can then be tied in place (permanent occlusion) or removed after a short amount of time depending on the desired degree of ischemic damage (3 minutes to 2 hours). After removal of the filament, the external carotid stump is tied shut and the clamps removed to allow the return of blood flow to the brain. The incision was closed with wound clips. Post surgery, animals were observed until recovery from anesthesia. During the surgery, animals were kept on a thermostat-regulated heating pad to maintain the body and head temperatures at 37° C. To inhibit the blood from clotting 90 IU.kg^−1 Heparin was administered intravenously to the animal after occlusion of MCAO. The body core temperature of the animal was measured regularly, up to 1 day of recovery in some animals. […] Temperatures are measured manually using a rat probe. […] Infarction volume was measured by digital imaging and image analysis software. […]

Row | Compound | pIC50 [1] | neuroprotection (FIG. 1) [2] | infarction volume in cortex and striatum as percentage of total brain volume, versus vehicle ([2]; TTC staining) | neuroprotection ([3]; rat MCAO, carbenoxolone administered at 4 to 6 hours post-occlusion) | infarction volume in cortex and striatum as percentage of total brain volume, versus vehicle ([3]; rat, 90 min MCAO, bolus 20 mg at 5 min of reperfusion plus infusion 1.6 mg/h for 24 hours, TTC staining)
1 | Cc1c(Cl)cccc1S(=O)(=O)Nc1nc(CC(=O)N2CCN(C)CC2)cs1 [BVT 2733, 3-Chloro-2-methyl-N-{4-[2-(4-methyl-piperazin-1-yl)-2-oxo-ethyl]-thiazol-2-yl}-benzenesulfonamide] | < 5.00 | potent and significant neuroprotection | smaller infarction compared to vehicle treated rats |  | 
2 | CC1(C)[C@@H](OC(=O)CCC(=O)O)CC[C@]2(C)[C@H]3C(=O)C=C4[C@@H]5C[C@@](C)(C(=O)O)CC[C@]5(C)CC[C@@]4(C)[C@]3(C)CC[C@@H]12 [carbenoxolone] |  |  |  | potent neuroprotection | smaller infarction compared to vehicle treated rats
